Test results as given in paper PMC10387993, “New pyrimidine-N-β-D-glucosides: synthesis, biological evaluation, and molecular docking investigations” (Turkish Journal of Chemistry, 2023).
In brackets after ≈: the same amount, converted by molar mass.

Key:
Type in all cases: cell-based
[1] = LDH cytotoxic activity assay, FL; conditions: human, FL cells (normal cells)
Protocol: (§1) The cell lines were cultured in a cell medium (Dulbecco’s modified eagle’s or RPMI 1640) enriched with 10% (v/v) fetal bovine serum and 2% (v/v) Penicillin-Streptomycin (10,000 U/mL). First, old medium was removed out of the flask when the cells reached approximately 80% confluence. Next, cells were taken from the flasks surface using trypsin-EDTA solution and then subjected to centrifugation. Following, the cell pellet was suspended with fresh media and was inoculated into wells.
(§2) Approximately 5 × 10^3 cells in 100 μL were placed into 96-well plates as triplicates and treated with 25, 50, 75, and 100 μg/mL concentrations of test compounds at 37 °C with 5% CO2 for 24 h. LDH activity was obtained by determining absorbance at 492–630 nm using a microplate reader.

[2] = LDH cytotoxic activity assay, Hep3B; conditions: human, Hep3B cells
Protocol: as §1, §2

[3] = system: MCF7; test: cells; conditions: Homo sapiens; for LC50 (concentration causing 50% net cell loss relative to time zero): MCF7, read-out: LC50; for GI50 / IC50 / IC (total growth inhibition): MCF7, MTT; for IC50: read-out: IC50; for IC (total growth inhibition): read-out: TGI
Outline: (§3)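 In this MTT proliferation screen, formazan formed over 4 h was read at 560 nm against a 690 nm reference. Each line was tested at least three times, and the IC50 was taken as the concentration inhibiting half of the cells.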

[4] = system: A549; test: cells; conditions: Homo sapiens; for LC50 (concentration causing 50% net cell loss): A549, read-out: LC50; for GI50 / IC50 / IC (total growth inhibition): A549, MTT; for IC50: read-out: IC50; for IC (total growth inhibition): read-out: TGI
Outline: as §3

[5] = system: HT29; test: cells; conditions: Homo sapiens; for LC50 (concentration giving 50% net cell loss relative to time zero): HT-29, read-out: LC50; for GI50 / IC50 / IC (total growth inhibition): HT-29, HT29, MTT; for IC50: read-out: IC50; for IC (total growth inhibition): read-out: TGI
Outline: as §3

[6] = system: HeLa; test: cells; conditions: Homo sapiens; for GI50 / IC50 / IC (total growth inhibition): MTT; for IC50: read-out: IC50; for IC (total growth inhibition): read-out: TGI; for LC50 (concentration causing 50% net cell loss): read-out: LC50
Outline: as §3

[7] = LDH cytotoxic activity assay, C6; conditions: rat, C6 glioma cells; for cytotoxicity at 24 h, 25 μg/mL: C6, 25 μg/mL; for cytotoxicity at 24 h, 50 μg/mL: C6, 50 μg/mL; for cytotoxicity at 24 h, 75 μg/mL: C6, 75 μg/mL; for cytotoxicity at 24 h, 100 μg/mL: C6, 100 μg/mL
Outline: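 Harvest ~80%-confluent cells with trypsin-EDTA, seed ~5 × 10^3 per well in DMEM or RPMI 1640 containing 10% FBS, then add compound at 25–100 μg/mL (four levels) for 24 h at 37 °C. Finish by reading LDH activity at 492–630 nm.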

[8] = LDH cytotoxic activity assay, MCF7; conditions: human, MCF7 cells; for cytotoxicity at 24 h, 25 μg/mL: MCF7, 25 μg/mL; for cytotoxicity at 24 h, 50 μg/mL: MCF7, 50 μg/mL; for cytotoxicity at 24 h, 75 μg/mL: MCF7, 75 μg/mL
Protocol: as §1, §2

[9] = LDH cytotoxic activity assay, A549; conditions: human, A549 cells; for cytotoxicity at 24 h, 25 μg/mL: A549, 25 μg/mL; for cytotoxicity at 24 h, 50 μg/mL: A549, 50 μg/mL; for cytotoxicity at 24 h, 75 μg/mL: A549, 75 μg/mL; for cytotoxicity at 24 h, 100 μg/mL: A549, 100 μg/mL
Protocol: as §1, §2

[10] = as the column head prints, head prints FL

GI50 [3] [µg/mL]	IC50 [3] [µg/mL]	GI50 [4] [µg/mL]	IC50 [4] [µg/mL]	GI50 [5] [µg/mL]	IC50 [5] [µg/mL]	SMILES	cytotoxicity at 24 h, 25 μg/mL ([1]; FL) [%]	cytotoxicity at 24 h, 50 μg/mL ([1]; FL) [%]	cytotoxicity at 24 h, 75 μg/mL ([1]; FL) [%]	cytotoxicity at 24 h, 100 μg/mL ([1]; FL) [%]	cytotoxicity at 24 h, 100 μg/mL [1, 10] [%]	cytotoxicity at 24 h, 25 μg/mL [2] [%]	cytotoxicity at 24 h, 50 μg/mL [2] [%]	cytotoxicity at 24 h, 75 μg/mL [2] [%]	cytotoxicity at 24 h, 100 μg/mL [2] [%]	LC50 (concentration causing 50% net cell loss relative to time zero) [3] [µg/mL]	IC (total growth inhibition) [3] [µg/mL]	LC50 (concentration causing 50% net cell loss) [4] [µg/mL]	IC (total growth inhibition) [4] [µg/mL]	LC50 (concentration giving 50% net cell loss relative to time zero) [5] [µg/mL]	other results
1.7 (≈ 4.01 µM)	> 500	> 500	> 500	4.43 (≈ 10.4 µM)	42.5 (≈ 100 µM)	Cc1ccc(-c2cc(-c3cccnc3)nc(N[C@@H]3O[C@H](CO)[C@@H](O)[C@H](O)[C@H]3O)n2)cc1 [Compound 8, N-[4-(4-methylphenyl)-6-pyridin-3-ylpyrimidin-2-yl]-β-D-glucopyranosylamine]	20.8	34.1	41	69.9	43.5	15.6	20.5	36.2	52.9	> 500	> 500	> 500	> 500	> 500	IC (total growth inhibition) [5]: 60 µg/mL; GI50 [6]: 14.1 µg/mL (≈ 33.2 µM); IC50 [6]: 81.3 µg/mL (≈ 191 µM); IC (total growth inhibition) [6]: 50.1 µg/mL; LC50 (concentration causing 50% net cell loss) [6]: 325 µg/mL (≈ 766 µM); cytotoxicity at 24 h, 25 μg/mL [7]: 28.4%; cytotoxicity at 24 h, 50 μg/mL [7]: 45.4%; cytotoxicity at 24 h, 75 μg/mL [7]: 63.2%; cytotoxicity at 24 h, 100 μg/mL [7]: 88.7%; cytotoxicity at 24 h, 25 μg/mL [8]: 10%; cytotoxicity at 24 h, 50 μg/mL [8]: 20.1%; cytotoxicity at 24 h, 75 μg/mL [8]: 32.8%; cytotoxicity at 24 h, 25 μg/mL [9]: 28.1%; cytotoxicity at 24 h, 50 μg/mL [9]: 26%; cytotoxicity at 24 h, 75 μg/mL [9]: 47.4%; cytotoxicity at 24 h, 100 μg/mL [9]: 58.1%
2.53 (≈ 5.96 µM)	66.8 (≈ 157 µM)	23.7 (≈ 55.8 µM)	> 500	4.12 (≈ 9.71 µM)	72.6 (≈ 171 µM)	Cc1cccc(-c2cc(-c3cccnc3)nc(N[C@@H]3O[C@H](CO)[C@@H](O)[C@H](O)[C@H]3O)n2)c1 [Compound 5, N-[4-(3-methylphenyl)-6-pyridin-3-ylpyrimidin-2-yl]-β-D-glucopyranosylamine]	16.6	32.9	62.6	76.8	36.4	14.1	25.5	42.8	52.5	> 500	75.7	> 500	> 500	> 500	IC (total growth inhibition) [5]: 126 µg/mL; GI50 [6]: > 500 µg/mL; IC50 [6]: > 500 µg/mL; IC (total growth inhibition) [6]: > 500 µg/mL; LC50 (concentration causing 50% net cell loss) [6]: > 500 µg/mL; cytotoxicity at 24 h, 25 μg/mL [7]: 26.9%; cytotoxicity at 24 h, 50 μg/mL [7]: 44.1%; cytotoxicity at 24 h, 75 μg/mL [7]: 62.6%; cytotoxicity at 24 h, 100 μg/mL [7]: 87.1%; cytotoxicity at 24 h, 25 μg/mL [8]: 8.23%; cytotoxicity at 24 h, 50 μg/mL [8]: 12.2%; cytotoxicity at 24 h, 75 μg/mL [8]: 24.9%; cytotoxicity at 24 h, 25 μg/mL [9]: 24.4%; cytotoxicity at 24 h, 50 μg/mL [9]: 31.3%; cytotoxicity at 24 h, 75 μg/mL [9]: 51.5%; cytotoxicity at 24 h, 100 μg/mL [9]: 66.3%
